The NIST ThermoML archive (doi:10.1016/j.jct.2017.10.002)
Several values for one entry are separate records, joined by “and”; a condition that tells them apart may be missing. Equal values may be shown once. ± gives the expanded uncertainty stated by the source.

Conditions: 101.33 kPa, relaxation calorimetry

CCc1ncc[n-]1.CCc1ncc[n-]1.[Zn+2] [zinc(II) 2-ethylimidazolide]
molar entropy
Conditions	Crystal	Glass
1 K	–	0.008253 ± 0.00074 J/K/mol
2 K	–	0.0244 ± 0.002 J/K/mol
3 K	–	0.06286 ± 0.0052 J/K/mol
4 K	–	0.1418 ± 0.012 J/K/mol
5 K	0.3545 ± 0.029 J/K/mol and 0.1203 ± 0.0097 J/K/mol and 0.3132 ± 0.025 J/K/mol	0.2736 ± 0.022 J/K/mol
6 K	0.5863 ± 0.047 J/K/mol and 0.2089 ± 0.017 J/K/mol and 0.5177 ± 0.042 J/K/mol	0.464 ± 0.037 J/K/mol
7 K	0.8825 ± 0.071 J/K/mol and 0.3306 ± 0.027 J/K/mol and 0.7801 ± 0.063 J/K/mol	0.7139 ± 0.057 J/K/mol
8 K	1.241 ± 0.1 J/K/mol and 0.4909 ± 0.039 J/K/mol and 1.099 ± 0.088 J/K/mol	1.022 ± 0.082 J/K/mol
9 K	1.66 ± 0.13 J/K/mol and 0.6925 ± 0.056 J/K/mol and 1.472 ± 0.12 J/K/mol	1.385 ± 0.11 J/K/mol
10 K	2.135 ± 0.13 J/K/mol and 0.9364 ± 0.057 J/K/mol and 1.895 ± 0.12 J/K/mol	1.801 ± 0.11 J/K/mol
15 K	5.252 ± 0.32 J/K/mol and 2.784 ± 0.17 J/K/mol and 4.686 ± 0.29 J/K/mol	4.579 ± 0.28 J/K/mol
20 K	9.321 ± 0.57 J/K/mol and 5.606 ± 0.34 J/K/mol and 8.386 ± 0.51 J/K/mol	8.3 ± 0.51 J/K/mol
25 K	14.04 ± 0.85 J/K/mol and 9.263 ± 0.56 J/K/mol and 12.76 ± 0.78 J/K/mol	12.73 ± 0.78 J/K/mol
30 K	19.18 ± 1.2 J/K/mol and 13.59 ± 0.83 J/K/mol and 17.67 ± 1.1 J/K/mol	17.72 ± 1.1 J/K/mol
35 K	24.62 ± 1.5 J/K/mol and 18.45 ± 1.1 J/K/mol and 23 ± 1.4 J/K/mol	23.14 ± 1.4 J/K/mol
40 K	30.28 ± 1.8 J/K/mol and 23.75 ± 1.4 J/K/mol and 28.69 ± 1.7 J/K/mol	28.89 ± 1.8 J/K/mol
45 K	36.11 ± 2.2 J/K/mol and 29.41 ± 1.8 J/K/mol and 34.67 ± 2.1 J/K/mol	34.85 ± 2.1 J/K/mol
50 K	42.08 ± 2.6 J/K/mol and 35.35 ± 2.2 J/K/mol and 40.84 ± 2.5 J/K/mol	40.96 ± 2.5 J/K/mol
60 K	54.27 ± 3.3 J/K/mol and 47.75 ± 2.9 J/K/mol and 53.56 ± 3.3 J/K/mol	53.5 ± 3.3 J/K/mol
70 K	66.58 ± 4.1 J/K/mol and 60.58 ± 3.7 J/K/mol and 66.61 ± 4.1 J/K/mol	66.3 ± 4 J/K/mol
80 K	78.9 ± 4.8 J/K/mol and 73.57 ± 4.5 J/K/mol and 79.79 ± 4.9 J/K/mol	79.14 ± 4.8 J/K/mol
90 K	91.13 ± 5.6 J/K/mol and 86.51 ± 5.3 J/K/mol and 92.92 ± 5.7 J/K/mol	91.86 ± 5.6 J/K/mol
100 K	103.17 ± 6.3 J/K/mol and 99.26 ± 6 J/K/mol and 105.89 ± 6.5 J/K/mol	104.37 ± 6.4 J/K/mol
110 K	114.97 ± 7 J/K/mol and 111.76 ± 6.8 J/K/mol and 118.62 ± 7.2 J/K/mol	116.61 ± 7.1 J/K/mol
120 K	126.51 ± 7.7 J/K/mol and 123.99 ± 7.5 J/K/mol and 131.07 ± 8 J/K/mol	128.56 ± 7.8 J/K/mol
130 K	137.77 ± 8.4 J/K/mol and 135.92 ± 8.3 J/K/mol and 143.23 ± 8.7 J/K/mol	140.23 ± 8.5 J/K/mol
140 K	148.77 ± 9.1 J/K/mol and 147.57 ± 9 J/K/mol and 155.11 ± 9.4 J/K/mol	151.61 ± 9.2 J/K/mol
150 K	159.51 ± 9.7 J/K/mol and 158.95 ± 9.7 J/K/mol and 166.72 ± 10 J/K/mol	162.74 ± 9.9 J/K/mol
160 K	170.01 ± 10 J/K/mol and 170.08 ± 10 J/K/mol and 178.07 ± 11 J/K/mol	173.62 ± 11 J/K/mol
170 K	180.29 ± 11 J/K/mol and 180.98 ± 11 J/K/mol and 189.19 ± 12 J/K/mol	184.28 ± 11 J/K/mol
180 K	190.36 ± 12 J/K/mol and 191.68 ± 12 J/K/mol and 200.09 ± 12 J/K/mol	194.75 ± 12 J/K/mol
190 K	200.25 ± 12 J/K/mol and 202.19 ± 12 J/K/mol and 210.8 ± 13 J/K/mol	205.03 ± 12 J/K/mol
200 K	209.96 ± 13 J/K/mol and 212.52 ± 13 J/K/mol and 221.34 ± 13 J/K/mol	215.14 ± 13 J/K/mol
210 K	219.52 ± 13 J/K/mol and 222.71 ± 14 J/K/mol and 231.73 ± 14 J/K/mol	225.11 ± 14 J/K/mol
220 K	228.95 ± 14 J/K/mol and 232.75 ± 14 J/K/mol and 241.97 ± 15 J/K/mol	234.95 ± 14 J/K/mol
230 K	238.24 ± 15 J/K/mol and 242.68 ± 15 J/K/mol and 252.1 ± 15 J/K/mol	244.67 ± 15 J/K/mol
240 K	247.43 ± 15 J/K/mol and 252.5 ± 15 J/K/mol and 262.12 ± 16 J/K/mol	254.28 ± 15 J/K/mol
250 K	256.52 ± 16 J/K/mol and 262.22 ± 16 J/K/mol and 272.04 ± 17 J/K/mol	263.8 ± 16 J/K/mol
260 K	265.53 ± 16 J/K/mol and 271.86 ± 17 J/K/mol and 281.89 ± 17 J/K/mol	273.23 ± 17 J/K/mol
270 K	274.45 ± 17 J/K/mol and 281.43 ± 17 J/K/mol and 291.67 ± 18 J/K/mol	282.58 ± 17 J/K/mol
273.15 K	277.25 ± 17 J/K/mol and 284.43 ± 17 J/K/mol and 294.74 ± 18 J/K/mol	285.51 ± 17 J/K/mol
280 K	283.31 ± 17 J/K/mol and 290.94 ± 18 J/K/mol and 301.39 ± 18 J/K/mol	291.87 ± 18 J/K/mol
290 K	292.12 ± 18 J/K/mol and 300.39 ± 18 J/K/mol and 311.06 ± 19 J/K/mol	301.09 ± 18 J/K/mol
298.15 K	299.26 ± 18 J/K/mol and 308.06 ± 19 J/K/mol and 318.92 ± 19 J/K/mol	308.57 ± 19 J/K/mol
300 K	300.87 ± 18 J/K/mol and 309.8 ± 19 J/K/mol and 320.7 ± 20 J/K/mol	310.26 ± 19 J/K/mol
